Assay results from PMC7382147, “An effective UFLC–MS/MS method used to study pharmacokinetics of major constituents of Fukeqianjin formula in rat plasma” (Chinese Medicine, 2020).

How the values were obtained:
[1] = Pharmacokinetic study in rat plasma after oral administration of FKQJF extract (UFLC–MS/MS); format: in vivo, Sprague-Dawley (SD) rats; details: for AUC(0-inf) / AUC(0-t) / Cmax / half-life / MRT last / MRT inf / Tmax: Sprague-Dawley, oral FKQJF extract, single dose 3.2 g/kg, mean ± SD; for MRT last: read-out: MRT0→t; for MRT inf: read-out: MRT0→∞; for Tmax: read-out: Tmax
Procedure: (§1) Aliquots of 100 μL plasma samples were mixed with 10 μL I.S. samples (1 μg/mL, in MeOH), then added with 500 μL ACN, respectively, and vortexed for 5 min, centrifugated at 10,000 rpm for 10 min, the supernatants were transferred into clean vials and dried in a vacuum centrifugal concentrator at 1200 rpm, 37 °C. After that, 100 μL ACN was added and ultrasonic (frequency 40 kHz, power 250 W) extracted for 5 min to dissolve the dry residue, vortexed for 1 min and centrifugated at 10,000 rpm for 5 min, 1 μL of each final supernatant was injected into UFLC–MS/MS for analysis.
An 8050 UFLC–MS/MS system equipped with LC-30A binary pump, a SIL-30AC autosampler, a SPD-M30A PDA detector, a CTO-20AC column oven, and a 8050 triple quadrupole mass spectrometer with an electrospray ionization source (ESI) was applied to detect and quantify FKQJF compounds in plasma samples. Data were acquired and processed with the software LabSolution (Ver. 5.6).
A Kinetex XB-C18 HPLC column (100 × 2.1 mm, 2.6 μm) linked with an equivalent guard column was used for chromatographic separation. The aqueous phase contained 0.2% formic acid was used as mobile phase A, and organic phase ACN as mobile phase B. The gradient elution method using in this program was: 3–5 min, 28–31% B; 5–7 min, 31–34% B; 7–9 min, 34–65% B; 9–10 min, 65–95% B; 10–11.5 min, 95% B. The flow rate of mobile phase, column temperature and autosampler temperature was 0.4 mL/min, 30 °C and 4 °C, respectively. The injection volume of each sample was set as 1 μL. The main MS spectrum parameters were set as follows: the flow rate of drying gas (N2) was 10.0 L/min; the atomized gas was 3.0 L/min and the heating gas flow rate was 10.0 L/min. The main temperatures of interface, desolvation and heat block was 300 °C, 250 °C and 400 °C, respectively. And, the interface and detector voltage were 3 kV and 1.8 kV.
Rats were divided into a blank group and a FKQJF administration group (6 rats for each), and fasted for 24 h. Each rat of the administration group was given FKQJF extract suspension at a single dose of 3.2 g FKQJF/kg body weight through oral administration in parallel. Blood samples (0.25 mL) were gathered from the orbital venous plexus of each rat, with FKQJF group gathered at 14 serial timepoints (6 rats for each) as 0.083 h, 0.16 h, 0.33 h, 0.5 h, 0.75 h, 1.0 h, 1.5 h, 2 h, 3 h, 4 h, 6 h, 8 h, 12 h and 24 h after drug administration. The blood samples were centrifugated at 6000g for 10 min to isolate plasma and stored at − 20 °C for further analysis.
Data were analyzed using the Drug and Statistics (DAS) Software version 2.0 (DAS 2.0, Mathematical Pharmacology Professional Committee of China, Shanghai, China). The non-compartmental mode was applied to obtain the following PK parameters: area under the plasma concentration–time curve from time zero to the time of last quantifiable concentration (AUC0→t) and area under the plasma concentration–time curve to time infinity (AUC0→∞), the elimination half-life (t1/2), mean retention time to last sampling time (MRT0→t) and mean retention time to infinity (MRT0→∞). The maximum plasma concentration (Cmax) and the time to maximum concentration (Tmax) were observed directly from the concentration–time (C–T) curves and measured data. All data are presented as mean ± SD.

[2] = Long-term stability of QC samples (−20 °C for 20 days); format: physicochemical, rat; details: plasma QC
Procedure: as §1
(§2) Six replicates of low, medium and high concentrations of quality control (QC) samples were used to verify the stabilities under different conditions including: place at room temperature for 8 h, freeze (− 20 °C) and thaw for three times, and store at − 20 °C for 20 days.

[3] = Freeze–thaw stability of QC samples (−20 °C, three times); format: physicochemical, rat; details: plasma QC, freeze (−20 °C) and thaw three times
Procedure: as §1, §2

[4] = Ordinary stability of QC samples (room temperature for 8 h); format: physicochemical, rat; details: plasma QC, room temperature 8 h
Procedure: as §1, §2

[5] = oral FKQJF extract 3.2 g/kg, post dose

| SMILES | AUC(0-inf) [1] [ng·h/mL] | AUC(0-t) [1] [ng·h/mL] | Cmax [1] [ng/mL] | half-life [1] [h] | MRT last [1] [h] | MRT inf [1] [h] | Tmax [1] [h] | shape of the plasma concentration–time curve ([1]; oral FKQJF extract 3.2 g/kg) | Long-term stability Mean ([2]; spiked 50 ng/mL) [%] | Long-term stability Mean ([2]; spiked 250 ng/mL) [%] | Long-term stability Mean ([2]; spiked 500 ng/mL) [%] | Freeze–thaw stability Mean ([3]; spiked 50 ng/mL) [%] | Freeze–thaw stability Mean ([3]; spiked 250 ng/mL) [%] | Freeze–thaw stability Mean ([3]; spiked 500 ng/mL) [%] | Ordinary stability Mean ([4]; spiked 50 ng/mL) [%] | Ordinary stability Mean ([4]; spiked 250 ng/mL) [%] | Ordinary stability Mean ([4]; spiked 500 ng/mL) [%] | other results |
| --- | --- | --- | --- | --- | --- | --- | --- | --- | --- | --- | --- | --- | --- | --- | --- | --- | --- | --- |
| COc1cc(O[C@@H]2O[C@H](CO)[C@@H](O)[C@H](O)[C@H]2O)cc(OC)c1OC [Analyte 1, 3,4,5-trimethoxyphenol-1-O-β-D-glucopyranoside] | 115 ± 15.8 | 109 ± 11.4 | 48 ± 4.41 | 1.79 ± 0.44 | 2.6 ± 0.12 | 3.37 ± 0.26 | 2 | double-peaks | 86.86 | 89.00 | 103.76 | 112.34 | 99.57 | 106.56 | 80.92 | 104.48 | 117.94 | – |
| COC(=O)c1ccc(O)cn1 [Analyte 2, 5-hydroxypicolinic acid methyl ester] | 3110 ± 38.7 | 2970 ± 169 | 477 ± 33.3 | 5.27 ± 2.94 | 6.51 ± 0.66 | 8.09 ± 1.32 | 2.17 ± 0.76 | – | 87.08 | 83.50 | 112.17 | 98.92 | 99.07 | 86.48 | 106.33 | 86.35 | 95.34 | – |
| O=Cc1ccc2n1C[C@]1(C[C@H](O)[C@@H](CO)O1)OC2 [Analyte 3, acortatarin A] | 489 ± 37.6 | 463 ± 29.5 | 102 ± 18.4 | 2.66 ± 0.69 | 3.67 ± 0.14 | 4.32 ± 0.47 | 2.33 ± 0.58 | – | 81.68 | 86.77 | 93.19 | 84.84 | 92.61 | 90.89 | 93.52 | 84.19 | 109.98 | – |
| O=Cc1ccc2n1C[C@@]1(C[C@H](O)[C@@H](CO)O1)OC2 [Analyte 4, 9-epi-acortatarin A] | 92.6 ± 21.4 | 80.5 ± 9.64 | 46.8 ± 6.78 | 2.2 ± 1.24 | 2.38 ± 0.24 | 3.25 ± 0.41 | 1 ± 0.5 | – | 118.34 | 81.20 | 104.85 | 91.90 | 107.25 | 102.81 | 108.94 | 116.00 | 84.20 | – |
| C=C1CC[C@@H]2[C@](C)(CO[C@@H]3O[C@H](CO)[C@@H](O)[C@H](O)[C@H]3O)CCC[C@@]2(C)[C@@H]1CCC1=CCOC1=O [Analyte 5, neoandrographolide] | 505 ± 109 | 344 ± 43.1 | 104 ± 14.9 | 3.89 ± 0.85 | 3.51 ± 0.24 | 7.55 ± 1.93 | 1 ± 0.43 | double-peaks | – | – | – | – | – | – | – | – | – | time of first peak of the concentration–time curve [1, 5]: 0 to 1 h; time of second peak of the concentration–time curve [1, 5]: 1.5 to 3 h; Long-term stability Mean ([2]; spiked 60 ng/mL): 113.28%; Long-term stability Mean ([2]; spiked 300 ng/mL): 97.44%; Long-term stability Mean ([2]; spiked 600 ng/mL): 82.61%; Freeze–thaw stability Mean ([3]; spiked 60 ng/mL): 109.12%; Freeze–thaw stability Mean ([3]; spiked 300 ng/mL): 80.22%; Freeze–thaw stability Mean ([3]; spiked 600 ng/mL): 113.31%; Ordinary stability Mean ([4]; spiked 60 ng/mL): 81.32%; Ordinary stability Mean ([4]; spiked 300 ng/mL): 103.80%; Ordinary stability Mean ([4]; spiked 600 ng/mL): 94.88% |
| COc1cc(/C=C/C(=O)O)ccc1O [Analyte 6, trans-ferulic acid] | 1010 ± 558 | 466 ± 51.9 | 79.8 ± 9.43 | 10.5 ± 6.63 | 9.19 ± 1 | 13.9 ± 9.49 | 0.08 | double-peaks | – | – | – | – | – | – | – | – | – | Long-term stability Mean ([2]; spiked 60 ng/mL): 83.07%; Long-term stability Mean ([2]; spiked 300 ng/mL): 91.27%; Long-term stability Mean ([2]; spiked 600 ng/mL): 102.00%; Freeze–thaw stability Mean ([3]; spiked 60 ng/mL): 115.63%; Freeze–thaw stability Mean ([3]; spiked 300 ng/mL): 102.20%; Freeze–thaw stability Mean ([3]; spiked 600 ng/mL): 88.33%; Ordinary stability Mean ([4]; spiked 60 ng/mL): 88.22%; Ordinary stability Mean ([4]; spiked 300 ng/mL): 109.93%; Ordinary stability Mean ([4]; spiked 600 ng/mL): 91.44% |
| O=c1c(-c2ccc(O)cc2)coc2cc(O[C@@H]3O[C@H](CO)[C@@H](O)[C@H](O)[C@H]3O)cc(O)c12 [Analyte 7, genistin] | 550 ± 70.7 | 468 ± 48.4 | 87.7 ± 26.6 | 7.68 ± 3.01 | 9.04 ± 0.68 | 14.2 ± 3.28 | 0.17 | double-peaks | 118.09 | 104.72 | 97.81 | 84.84 | 92.61 | – | 93.52 | 84.19 | – | – |
